# Measured values published in PMC6691349 (Frontiers in Chemistry, 2019).
# Key:
# falcipain-2 [1] = target: T1, falcipain-2 (Plasmodium falciparum, UniProt Q8I6U4); assay: fluorometric Z-LR-AMC kinetic assay with refolded recombinant enzyme; global fit to competitive and Morrison equations; reversibility by rapid dilution; type: biochemical
# T1 construct: gene FP2A
# falcipain-2 [2] = target: T1, falcipain-2; assay: fluorometric Z-LR-AMC kinetic assay with refolded recombinant enzyme; global fit to mixed inhibition model; type: biochemical
# [3] = test system: Cc1cc(=O)oc2cc(NC(=O)[C@H](CCCNC(=N)N)NC(=O)[C@H](CC(C)C)NC(=O)OCc3ccccc3)ccc12; assay: purified protein; conditions: accommodates completely within falcipain-2 active site
# T1 sequence (Q8I6U4 244-484): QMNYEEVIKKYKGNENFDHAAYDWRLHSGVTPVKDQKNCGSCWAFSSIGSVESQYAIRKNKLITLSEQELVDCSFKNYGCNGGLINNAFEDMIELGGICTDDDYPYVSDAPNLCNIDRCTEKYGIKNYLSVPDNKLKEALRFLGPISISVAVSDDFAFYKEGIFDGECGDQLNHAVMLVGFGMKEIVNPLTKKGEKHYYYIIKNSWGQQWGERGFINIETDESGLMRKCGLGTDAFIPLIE
compound,measurement,setting,value
CC(C)(F)C[C@H](N[C@@H](c1ccc(-c2ccc(S(C)(=O)=O)cc2)cc1)C(F)(F)F)C(=O)NC1(C#N)CC1 [odanacatib],Ki,falcipain-2 [1],0.0982 ± 0.0102 µM
C=C1c2cccc(O)c2C(=O)C2=C(O)[C@]3(O)C(=O)C(C(N)=O)=C(O)[C@@H](N(C)C)[C@@H]3[C@@H](O)[C@H]12 [methacycline],Ki,falcipain-2 [2],84.4 ± 6.5 µM
falcipain-2 (Plasmodium falciparum 3D7),Km,[3],4.8 µM
